Several values for one entry are separate records, joined by “and”; a condition that tells them apart may be missing. Equal entries are not always repeated. Where two headings read alike, the source gives them in different places.
Assays:
Assay type in all cases: cell-based, human
[1] = system: Na+/K+ ATPase pump (intracellular K+) in IMR90 cells at passage 27; test: Intracellular K+ determination with Asante staining, replicative senescence; conditions: for Asante Mean intensity / Asante Mean intensity, group mean (Test details, Mean 2): Replicative Senescence cells; for Asante Mean intensity: individual replicate values; for Asante Mean intensity, group mean (Test details, Mean 2): mean of n=6
Method: Cells were cultured for control and senescent phenotype and then treated with the senolytics oleandrin, ouabain and periplocin at 10 nM for 72 h. Asante (Asante Potassium Green-2 AM, abcam ab142806) was added to the culture 30 min before fixation, following manufacturer instructions. DAPI staining was done before image acquisition on Nikon TI2 microscope (20x). Image analysis was performed using ImageJ 1.53k for setting intensity threshold and measuring mean intensity.

[2] = system: IL1α, IL1β and IL8 mRNA in IMR90 cells at passage 27; test: IL1α, IL1β and IL8 mRNA expression by RT-qPCR, replicative senescence; conditions: Replicative senescence cells treated with Oleandrin; relative to Replicative senescence DMSO = 1; individual replicates (Sup Fig 9M)
Method: (§1) Total RNA was isolated using RNAeasy kit (Quiagen). cDNA was generated with reverse transcriptase iScript (Bio-Rad). RT-qPCR was performed using SYBR Select Master Mix (Applied Biosystems) in OneStepPlus detection system (Applied Biosystems). Oligos for amplification were: NOXA Fw-[…] and Rv-[…]; b-ACTIN Fw-[…] and Rv-[…]; IL1a Fw-[…] and Rv- […]; IL1b Fw-[…] and Rv- […]; IL8 Fw-[…] and Rv-[…]; p16 Fw-CGGTCGGAGGCCGATCCAG and Rv- […]; p21Fw-[…] and Rv- […].

[3] = system: IL1α, IL1β and IL8 mRNA in IMR90 ER:RAS cells; test: IL1α, IL1β and IL8 mRNA expression by RT-qPCR, OIS
Method: as §1

[4] = system: IMR90 cells at passage 13 (control); conditions: for Mean (cell survival, Tukey test details): FIG 4C, Young (control) cells, mean of n=12 as fraction of Young DMSO = 1
Source text: IMR90 (CCL-186) human foetal lung fibroblasts and A549 (CCL-185) human lung adenocarcinoma cells were obtained from the American Type Culture Collection (ATCC, Manassas, VA). The cell lines were confirmed to be mycoplasma negative (Lonza MycoAlert, cat #LT07-118). IMR90 ER:RAS is a derivative of IMR90 cells expressing a switchable version of oncogenic H-Ras[84]. IMR90 ER:RAS and A549 cells were maintained in Dulbecco’s Modified Eagle Medium (DMEM, ThermoFisher) supplemented with foetal bovine serum (10%), L-glutamine (2 mM, ThermoFisher), and antibiotic-antimycotic solution (1%, ThermoFisher) and incubated under standard tissue culture conditions (37 °C and 5% CO2). For induction of the senescent phenotype, IMR90-ER:RAS cells were cultured in hydroxytamoxifen (4-OHT) (Sigma) added media at 100 nM final concentration. IMR90 were kept in culture for over 27 passages for replicative senescence. Cells were tested for mycoplasma on a regular basis.
(§2) Equal numbers of control and senescent cells were plated at high density on multiwell plates just before senolytic treatment addition. After treatment, cells were fixed on 0.5% glutaraldehyde (Sigma) and then dried at RT overnight. Then, wells were stained with crystal violet solution for 3 h, washed and dried. Once they were completely dry, the plates were scanned for records. Quantification was performed extracting the staining with 1% acetic acid and measuring the final solution by absorbance at 595 nm.

[5] = system: senescent IMR90 ER:RAS cells; test: Cell survival assay using crystal violet staining, OIS, senescent cells; set-up: % Cell Survival: concentration or dose not given beside the values; conditions: for % Cell Survival / Mean (cell survival, Tukey test details): FIG 4B, ER:RAS cells; for % Cell Survival: individual replicate values, ER:STOP DMSO = 100; for Mean (cell survival, Tukey test details): mean of n=12 as fraction of STOP DMSO = 1
Method: as §2

[6] = system: p16 and p21 mRNA in IMR90 cells at passage 27; test: p16 and p21 mRNA expression by RT-qPCR, replicative senescence
Method: as §1

[7] = system: control A549 cells; test: Cell survival assay using crystal violet staining, TIS, control cells; conditions: fraction of Control DMSO = 1, n 15
[8] = system: p16 and p21 mRNA in IMR90 ER:RAS cells; test: p16 and p21 mRNA expression by RT-qPCR, OIS
Method: as §1

[9] = ER:RAS cells treated with Oleandrin, relative to ER:RAS DMSO = 1, individual replicates (Sup Fig 9L)
[10] = IMR90-ER:RAS cells undergoing OIS, 10 nM, 72 h
[11] = Replicative senescence, Replicative senescence DMSO = 1, single replicates (SUP FIG 9K)
[12] = ER:RAS cells, ER:RAS DMSO = 1, single replicates (SUP FIG 9J)

CO[C@H]1C[C@H](O[C@H]2CC[C@@]3(C)[C@H](CC[C@@H]4[C@@H]3CC[C@]3(C)[C@@H](C5=CC(=O)OC5)[C@@H](OC(C)=O)C[C@]43O)C2)O[C@@H](C)[C@@H]1O [Oleandrin, oleandrin]
Asante Mean intensity [1]: 145.1 and 146.6 and 146 and 145.5 and 145.6 | Asante Mean intensity, group mean (Test details, Mean 2) [1]: 145.7 | K+ intracellular concentration, in words ([1]; replicative senescence IMR90, 10 nM, 72 h): significantly reduced | Il1a mRNA expression [2]: 0.137 and 0.086 | Il1b mRNA expression [2]: 0.212 and 0.341 and 0.688 and 0.490 | Il8 mRNA expression [2]: 0.310 and 0.732 and 0.719 | Il1a mRNA expression [3, 9]: 0.753 and 0.593 and 0.059 and 0.346 | Il1b mRNA expression [3, 9]: 0.833 and 0.618 and 0.476 and 0.758 and 0.763 and 0.829 | Il8 mRNA expression [3, 9]: 0.635 and 0.462 and 0.310 and 0.125 and 0.299 | expression of proinflammatory cytokines IL1α, IL1β and IL8 mRNA in surviving cells, in words ([3]; OIS, 10 nM, three days): reduced expression | Mean (cell survival, Tukey test details) [4]: 0.8637 | cellular density in non-senescent control cultures, in words ([4]; IMR90 control, 10 nM, 72 h): unchanged | % Cell Survival [5]: 37.9% and 39.1% and 12.2% and 30.1% and 44.2% and 34.9% and 40.3% and 12.5% and 41% and 10.4% and 36% and 34.1% | Mean (cell survival, Tukey test details) [5]: 0.3106 | cytotoxic activity / cellular content (crystal violet), in words [5, 10]: significant drop in cellular content | p16 mRNA expression [6, 11]: 0.71 and 0.46 and 0.42 | p21 mRNA expression [6, 11]: 0.65 and 0.25 and 0.44 | mRNA expression of the senescence markers p16 and p21 in surviving cells, in words ([6]; replicative senescence, 10 nM, three days): reduced | Cell survival, mean (Test details, Mean 2) [7]: 1.13 | p16 mRNA expression [8, 12]: 0.68 and 0.69 and 0.24 and 0.46 | p21 mRNA expression [8, 12]: 0.34 and 0.51 and 0.72 and 0.48 | mRNA expression of the senescence markers p16 and p21 in surviving cells, in words ([8]; OIS, 10 nM, three days): reduced

C[C@@H]1O[C@@H](O[C@H]2C[C@@H](O)[C@]3(CO)[C@H]4[C@H](O)C[C@]5(C)[C@@H](C6=CC(=O)OC6)CC[C@]5(O)[C@@H]4CC[C@]3(O)C2)[C@H](O)[C@H](O)[C@H]1O [Ouabain, ouabain, reference compound]
Asante Mean intensity [1]: 151.8 and 154.5 and 152.7 and 153 and 150.8 and 153.1 | Asante Mean intensity, group mean (Test details, Mean 2) [1]: 152.7 | cytotoxic activity / cellular content (crystal violet), in words [5]: no cytotoxic activity | % Cell Survival [5]: 99% and 102.3% and 88.5% and 93% and 111.6% and 79.7% and 87.5% and 77.4% and 104.8% and 84.4% and 78.3% and 72% | Mean (cell survival, Tukey test details) [5]: 0.8988

CO[C@H]1C[C@H](O[C@H]2CC[C@]3(C)[C@H]4CC[C@]5(C)[C@@H](C6=CC(=O)OC6)CC[C@]5(O)[C@@H]4CC[C@]3(O)C2)O[C@H](C)[C@H]1O[C@@H]1O[C@H](CO)[C@@H](O)[C@H](O)[C@H]1O [Periplocin, periplocin]
Asante Mean intensity [1]: 152.4 and 152.1 and 153.1 and 152.9 and 152.7 | Asante Mean intensity, group mean (Test details, Mean 2) [1]: 152.6 | Mean (cell survival, Tukey test details) [4]: 0.8921 | % Cell Survival [5]: 119.4% and 103.3% and 90.2% and 103.2% and 120.1% and 97.6% and 95% and 114.9% and 93.3% and 103% and 92.4% | Mean (cell survival, Tukey test details) [5]: 1.03 | cytotoxic activity / cellular content (crystal violet), in words [5, 10]: no cytotoxic activity

From PMC10257182, “Discovery of senolytics using machine learning” (Nature Communications, 2023)
